Experimental data as given in ChEMBL document CHEMBL4422676, “Fragment-based screening of programmed death ligand 1 (PD-L1)” (Bioorg Med Chem Lett, 2019).

What was measured:
[1] = target: Programmed cell death 1 ligand 1 (Homo sapiens, UniProt Q9NZQ7, H140E); test: Binding affinity to human 15N-labelled 6His-tagged PDL1 IgV domain H140E mutant (18 to 134 residues) expressed in Escherichia coli BL21 (DE3) by 1D-1H NMR spectroscopy
[2] = system: Programmed cell death 1 ligand 1 (Homo sapiens), Q9NZQ7 [UNDEFINED MUTATION]; test: Displacement of 15N-labelled PD1 from human 15N-labelled 6His-tagged PDL1 IgV domain H140E mutant (18 to 134 residues) at 800 uM assessed as rescue signal intensity by HMQC spectra analysis
Chain of Programmed cell death 1 ligand 1 (Homo sapiens), Q9NZQ7 [UNDEFINED MUTATION] (Q9NZQ7 whole entry, looked up, stated change not applied, the tested form may be a part): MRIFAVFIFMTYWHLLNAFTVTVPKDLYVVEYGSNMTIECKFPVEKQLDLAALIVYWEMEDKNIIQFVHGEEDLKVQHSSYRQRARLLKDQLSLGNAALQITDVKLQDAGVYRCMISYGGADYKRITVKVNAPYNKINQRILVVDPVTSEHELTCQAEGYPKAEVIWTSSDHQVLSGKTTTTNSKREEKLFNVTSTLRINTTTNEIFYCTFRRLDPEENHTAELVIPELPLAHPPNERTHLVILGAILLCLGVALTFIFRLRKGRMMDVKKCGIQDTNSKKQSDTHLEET

[3] = system: Programmed cell death 1 ligand 1 (Homo sapiens), Q9NZQ7 [UNDEFINED MUTATION]; test: Displacement of 15N-labelled PD1 from human 15N-labelled 6His-tagged PDL1 IgV domain H140E mutant (18 to 134 residues) at 2 mM assessed as rescue signal intensity by HMQC spectra analysis

Chain of Programmed cell death 1 ligand 1 (Q9NZQ7 whole entry, looked up, stated change not applied, the tested form may be a part): as above

Row | Structure (SMILES) | Kd ([1]; read-out: Kd) [mM] | Activity [2] [%] | Kd [1] | Activity [3] [%]
1 | Cc1cc(Nc2ccc(N3CCCC3)cc2)ncn1 | 3 | 1 to 15 |  | 
2 | COc1ccc2nc(NCc3cccnc3)sc2c1 | 2.9 | 1 to 15 |  | 
3 | Cc1nc2cc(-c3ccccc3)ccc2o1 |  | 1 to 15 | Nd(Insoluble) | 
4 | COC(=O)c1[nH]cc(-c2ccccc2F)c1N |  | 1 to 15 | Nd(Insoluble) | 
5 | Oc1ncnc2scc(-c3ccccc3)c12 |  | > 15 | Nd(Insoluble) | 75
6 | CCN(CC)C(=O)c1sc2ccccc2c1Cl | 2.5 | > 15 |  | 
7 | Cc1sc(N)nc1-c1ccc2c(c1)OCCO2 | 1.2 | > 15 |  | 
8 | CNCc1ccc(-c2cc(Cl)cc(Cl)c2)o1 | 1.9 | > 15 |  | 
9 | CC(=O)Oc1ccc2c(c1)cc(C)n2C |  | > 15 | Nd(Insoluble) | 
